Results reported in patent US10718770B2, “Methods for screening compounds for treating or preventing a viral infection or a virus-related condition” (ABIVAX, priority 2015, dated 2020).

Assays:
[1] = biological target: T1, Recombinant human CBC (Homo sapiens, UniProt P52298+Q09161); assay: Gel-mobility shift assay: binding of capped RNA to the CBC complex; settings: native gel; Compound 1 5-50 μM, Compound 1-N-glucuronide 5-100 μM, m7GpppG 12 mM
T1 construct: made in house
T1 sequence (P52298 1-156): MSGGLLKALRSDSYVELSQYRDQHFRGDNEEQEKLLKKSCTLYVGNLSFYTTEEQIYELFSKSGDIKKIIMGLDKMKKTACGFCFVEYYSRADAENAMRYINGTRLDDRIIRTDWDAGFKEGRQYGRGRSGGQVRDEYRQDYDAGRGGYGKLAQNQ
T1 sequence (Q09161 1-790): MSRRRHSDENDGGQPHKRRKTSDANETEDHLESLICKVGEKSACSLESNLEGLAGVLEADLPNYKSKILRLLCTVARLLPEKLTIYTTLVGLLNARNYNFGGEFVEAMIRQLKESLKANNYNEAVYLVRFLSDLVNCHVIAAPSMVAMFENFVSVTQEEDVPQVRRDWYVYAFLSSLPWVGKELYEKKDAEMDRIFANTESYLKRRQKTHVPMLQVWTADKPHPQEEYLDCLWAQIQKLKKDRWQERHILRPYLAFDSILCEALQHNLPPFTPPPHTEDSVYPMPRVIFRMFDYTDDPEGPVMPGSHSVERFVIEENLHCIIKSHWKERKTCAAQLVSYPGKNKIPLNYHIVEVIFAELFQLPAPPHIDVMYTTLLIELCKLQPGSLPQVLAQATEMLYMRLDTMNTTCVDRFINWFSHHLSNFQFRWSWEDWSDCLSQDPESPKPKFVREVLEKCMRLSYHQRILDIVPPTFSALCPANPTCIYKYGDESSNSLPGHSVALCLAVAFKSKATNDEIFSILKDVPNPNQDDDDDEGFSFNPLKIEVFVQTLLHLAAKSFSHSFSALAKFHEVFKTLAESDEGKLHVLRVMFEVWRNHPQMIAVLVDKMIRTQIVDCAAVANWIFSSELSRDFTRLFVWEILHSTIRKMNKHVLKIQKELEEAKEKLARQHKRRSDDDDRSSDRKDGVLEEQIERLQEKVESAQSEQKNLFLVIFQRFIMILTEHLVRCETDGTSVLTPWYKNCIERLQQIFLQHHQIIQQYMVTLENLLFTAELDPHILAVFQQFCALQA
Method: FIG. 4. […] Recombinant human CBC was incubated with a capped RNA substrate and analyzed by native gel electrophoresis in order to resolve the different RNA and RNA-protein complexes: free RNA (lane 1), and CBC-RNA complexes (lanes 2-10) in the presence of 12 mM of m7GppG (lanes 10) or 5 μM, 10 μM or 50 μM of Compound 1 (lanes 2-4, respectively) or 5 μM, 10 μM, 50 μM or 100 μM of Compound 1-N-glucuronide ([…], respectively).
Gel-mobility shift assay in the presence of a m(7)GpppG cap analogue has been established according to the protocol described in Mazza et al. (Large-scale induced fit recognition of an m(7)GpppG cap analogue by the human nuclear cap-binding complex. EMBO J. 21, 5548-5557 (2002)).
Recombinant human CBC was incubated with a capped RNA substrate and analyzed by native gel electrophoresis in order to resolve the different RNA and RNA-protein complexes according to Mazza et al. (Large-scale induced fit recognition of an m(7)GpppG cap analogue by the human nuclear cap-binding complex. EMBO J. 21, 5548-5557 (2002).

[2] = biological target: SR protein splicing factor SRSF1 (Homo sapiens, UniProt Q07955); settings: cited from earlier work
Chain of SR protein splicing factor SRSF1 (Q07955 whole entry): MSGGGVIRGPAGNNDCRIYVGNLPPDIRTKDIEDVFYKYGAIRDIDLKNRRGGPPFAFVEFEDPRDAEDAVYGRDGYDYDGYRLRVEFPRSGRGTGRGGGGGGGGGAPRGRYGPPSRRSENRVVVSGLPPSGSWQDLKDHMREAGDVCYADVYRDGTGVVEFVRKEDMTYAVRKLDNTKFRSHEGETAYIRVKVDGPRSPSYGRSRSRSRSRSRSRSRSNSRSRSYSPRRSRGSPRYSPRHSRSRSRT

[3] = biological target: T2, CBC complex (CBP20 and CBP80) (Homo sapiens, UniProt P52298+Q09161); assay: UV crosslinking of purified recombinant CBP20 and CBP80 (CBC complex), SDS-PAGE / Western blot; format: binding; settings: purified recombinant CBP20 and CBP80, after UV irradiation
T2 construct: made in house
T2 sequence (P52298 1-156): T1 sequence (P52298 1-156)
T2 sequence (Q09161 1-790): T1 sequence (Q09161 1-790)
Method: FIG. 2. Compound 1 interacts with the CBC complex. Purified recombinant CBP20 and CBP80 proteins were incubated with increasing concentrations of Compound 1 (left panel) or Compound 1-N-glucuronide (right panel, Gluc) and treated for 30 minutes with UV light. […] Left panel: from left to right, incubation with 0.1 (lane 1), 1 (lane 2), 10 (lane 3) and 50 μM (lane 4) of Compound 1. Right panel: from left to right, incubation with 1 (lane 1), 10 (lane 2), 50 (lane 3), 100 μM (lane 4) and 200 μM (lane 5) of Compound 1-N-glucuronide.
FIG. 3. Compound 1 promotes the interaction of CBP20 with CBP80. A) Purified recombinant CBP20 and CBP80 proteins were incubated with the indicated concentrations of Compound 1-N-glucuronide and they were either untreated (lanes 1-3), treated during 15 min (lanes 4-6) or 30 min (lanes 7-9) with UV light. Proteins were analyzed by SDS-PAGE and stained with Coomassie blue. […] B) Recombinant human CBC was incubated with Compound 1-N-glucuronide and treated with UV for 15 min. After crosslinking the proteins were resolved in SDS-PAGE and stained with Coomassie blue (left panel). Stained proteins (Band 4, Band 5 and Band 7) were digested with trypsin and analysed by mass spectrometry. […]

Structure (SMILES) | competition for binding of capped RNA to the CBC complex [1] | production of key viral proteins ([2]; HIV-1) | splicing enhancer activity of SRSF1 [2] | covalent bridging (UV crosslinking) between CBP20 and CBP80 [3]
Cn1c[n+]([C@@H]2O[C@H](COP(=O)(O)OP(=O)([O-])OP(=O)(O)OC[C@H]3O[C@@H](n4cnc5c(=O)[nH]c(N)nc54)[C@H](O)[C@@H]3O)[C@@H](O)[C@H]2O)c2nc(N)[nH]c(=O)c21 [m^7GpppG, reference compound] | competed | – | – | –
Cc1c2ccnc(Cl)c2cc2c3cn(C)ccc-3nc12 [IDC16, 10-chloro-2,6-dimethyl-2H-pyrido[3′,4′:4,5]pyrrolo[2,3-g]isoquinoline] | – | suppresses the production of key viral proteins | interfere with splicing enhancer activity | –
O=C(O)[C@H]1O[C@@H](N(c2ccc(OC(F)(F)F)cc2)c2ccc3cccc(Cl)c3n2)[C@H](O)[C@@H](O)[C@@H]1O [Compound 1-N-glucuronide, 8-chloro-N-glucuronide-N-(4-(trifluoromethoxy)phenyl)quinolin-2-amine] | neither Compound 1 nor Compound 1-N-glucuronide interfere | – | – | promote UV crosslinking of CBP20 and CBP80
